pIC50: −log10 of the molar value.
Assays:
OVCAR-8 = experiment: Anticancer activity against human OVCAR8 cells after 96 hrs by SRB assay; format: functional, cell-based; conditions: OVCAR-8, 96 h
[1] = Anticancer activity against mouse B16-F1 cells after 96 hrs by SRB assay; format: functional, cell-based; conditions: B16-F1, 96 h
A-375 = experiment: Anticancer activity against human A375 cells after 96 hrs by SRB assay; format: functional, cell-based; conditions: A-375, 96 h
PC-3 = experiment: Anticancer activity against human PC3 cells after 96 hrs by SRB assay; format: functional, cell-based; conditions: PC-3, 96 h
LNCaP = experiment: Anticancer activity against human LNCAP cells after 96 hrs by SRB assay; format: functional, cell-based
PPC-1 = experiment: Anticancer activity against human PPC1 cells after 96 hrs by SRB assay; format: functional, cell-based; conditions: PPC-1, 96 h
NCI/ADR-RES = experiment: Anticancer activity against P-gp overexpressing human NCI/ADR-RES cells after 96 hrs by SRB assay; format: functional, cell-based
[2] = AUC in Sprague-Dawley rat at […], iv by LC-MS/MS analysis; format: ADME, organism-based; parameters: dose 2.5 mg/kg, route intravenous; conditions: plasma
[3] = Cmax in Sprague-Dawley rat at […], iv by LC-MS/MS analysis; format: ADME, organism-based; parameters: dose 2.5 mg/kg, route intravenous; conditions: in vivo
[4] = AUC in Sprague-Dawley rat at 4 mg/kg, po by LC-MS/MS analysis; format: ADME, organism-based; parameters: dose 4 mg/kg, route oral; conditions: plasma
[5] = Cmax in Sprague-Dawley rat at 4 mg/kg, po by LC-MS/MS analysis; format: ADME, organism-based; parameters: dose 4 mg/kg, route oral; conditions: in vivo
[6] = Aqueous solubility of the compound in PBS at 35 ug/ml and pH 7.4 by LC/MS/MS analysis; format: physicochemical; conditions: buffer
Rattus norvegicus = experiment: Oral bioavailability in Sprague-Dawley rat at 4 mg/kg by LC-MS/MS analysis; format: ADME, organism-based; conditions: in vivo

SMILES: COc1cc(C(=O)c2csc(-c3ccc(CN)cc3)n2)cc(OC)c1OC.Cl
- pIC50 (OVCAR-8): 7.59
- pIC50 [1]: 7.42
- pIC50 (A-375): 7.39
- pIC50 (PC-3): 7.10
- pIC50 (LNCaP): 7.89
- pIC50 (PPC-1): 7.47
- pIC50 (NCI/ADR-RES): 7.96
- AUC [2]: 2320 ng·h/mL
- Cmax [3]: 3790 ng/mL
- AUC [4]: 6.67 ng·h/mL
- Cmax [5]: 3.2 ng/mL
- solubility [6]: soluble
- F (Rattus norvegicus): 0.2%
